From ChEMBL document CHEMBL1201862, “PubChem BioAssay data set” (2004)
Structures can show the parent of a compound that is named as a salt.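 48-hour exposure; five concentrations; linearly interpolated endpoints. GI50: concentration for 50% inhibition of growth.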 The source made the active and inactive calls. Rule as the data show it: active = GI50 up to about 1.1 µM and inactive = higher.

Legend:
Experiment in all cases: inhibition of tumour cell growth, NCI panel, 48 h
[1] = test system: OVCAR-5
[2] = test system: BT-549
[3] = test system: CAKI-1
[4] = test system: SF-295
[5] = test system: U-251
[6] = test system: SW-620
[7] = test system: K562
[8] = test system: HOP-62
[9] = test system: NCI-H460
[10] = test system: M14
[11] = test system: MDA-MB-435
[12] = test system: LOX IMVI
[13] = test system: NCI/ADR-RES
[14] = test system: HL-60
[15] = test system: UO-31
[16] = test system: Hs-578T
[17] = test system: IGROV-1
[18] = test system: NCI-H522
[19] = test system: RXF 393

Compound | GI50 [1] | GI50 [2] | GI50 [3] | GI50 [4] | GI50 [5] | GI50 [6] | GI50 [7] | GI50 [8] | GI50 [9] | GI50 [10] | GI50 [11] | GI50 [12] | GI50 [13] | GI50 [14] | GI50 [15] | GI50 [16] | GI50 [17] | GI50 [18] | GI50 [19]
O=C(CNc1ccc(Cl)cc1Cl)NC1C=Cc2ccc(S(=O)(=O)Nc3ccc(Cl)cc3Cl)cc2C1=O (configuration not stated) | > 100 µM (inactive) | > 100 µM (inactive) | > 100 µM (inactive) | > 100 µM (inactive) | > 100 µM (inactive) | > 100 µM (inactive) | > 100 µM (inactive) | > 100 µM (inactive) | > 100 µM (inactive) | > 100 µM (inactive) | > 100 µM (inactive) | > 100 µM (inactive) | > 100 µM (inactive) | > 100 µM (inactive) | 54.2 µM (inactive) | > 100 µM (inactive) | > 100 µM (inactive) | > 100 µM (inactive) | 
O=Cc1ccc2[nH]c(=O)oc2c1 | > 100 µM (inactive) | > 100 µM (inactive) | > 100 µM (inactive) | > 100 µM (inactive) | 84.5 µM (inactive) | > 100 µM (inactive) | > 100 µM (inactive) | > 100 µM (inactive) | > 100 µM (inactive) | > 100 µM (inactive) | > 100 µM (inactive) | > 100 µM (inactive) | > 100 µM (inactive) | 99.5 µM (inactive) | 23.1 µM (inactive) | > 100 µM (inactive) | > 100 µM (inactive) |  | 94.8 µM (inactive)
C=C1CC(COc2ccc3c(C)c(Cl)c(=O)oc3c2)(c2ccccc2)OC1=O (configuration not stated) | 12.4 µM (inactive) | 1.53 µM (inactive) | 1.37 µM (inactive) | 7.13 µM (inactive) | 8.15 µM (inactive) | 0.69 µM (active) | 0.422 µM (active) | 7.03 µM (inactive) | 8 µM (inactive) | 1.04 µM (active) | 2.45 µM (inactive) | 0.887 µM (active) | 2.97 µM (inactive) | 0.277 µM (active) | 3.33 µM (inactive) | 5.58 µM (inactive) | 1.94 µM (inactive) | 1.14 µM (inactive) | 
COC(=O)CNC(=O)Nc1cc(N2C(=O)ON3C2C(C)(C)N(O)C3(C)C)ccc1C (configuration not stated) | > 100 µM (inactive) | > 100 µM (inactive) | > 100 µM (inactive) | 55 µM (inactive) | > 100 µM (inactive) | > 100 µM (inactive) | > 100 µM (inactive) | > 100 µM (inactive) | > 100 µM (inactive) | > 100 µM (inactive) | > 100 µM (inactive) | > 100 µM (inactive) | > 100 µM (inactive) |  | > 100 µM (inactive) | > 100 µM (inactive) | > 100 µM (inactive) | > 100 µM (inactive) | > 100 µM (inactive)
O=C(O)CNn1c(SCC(=O)O)nnc(/C=C/c2c(O)ccc3ccccc23)c1=O | 28.5 µM (inactive) | 15 µM (inactive) | 29.5 µM (inactive) | 3.89 µM (inactive) | 35.3 µM (inactive) | 44.9 µM (inactive) | 25.5 µM (inactive) | 16.1 µM (inactive) | 4.91 µM (inactive) | 17.1 µM (inactive) | 75.7 µM (inactive) | 7.5 µM (inactive) | 15 µM (inactive) | 9.98 µM (inactive) | 29.4 µM (inactive) | 12.8 µM (inactive) | 0.15 µM (active) | 29.8 µM (inactive) | 
CC(C)=CCNc1ncnc2c1ncn2CCC#N | > 100 µM (inactive) | > 100 µM (inactive) |  | > 100 µM (inactive) | > 100 µM (inactive) | > 100 µM (inactive) | > 100 µM (inactive) | > 100 µM (inactive) | > 100 µM (inactive) | > 100 µM (inactive) | > 100 µM (inactive) | > 100 µM (inactive) | > 100 µM (inactive) | > 100 µM (inactive) | > 100 µM (inactive) | > 100 µM (inactive) | > 100 µM (inactive) | > 100 µM (inactive) | 2.21 µM (inactive)
CO/N=C(\C)CCC#Cc1ccccc1C(=O)OC | > 10 µM (inactive) | > 10 µM (inactive) | > 10 µM (inactive) | > 10 µM (inactive) | > 10 µM (inactive) | > 10 µM (inactive) | > 10 µM (inactive) | > 10 µM (inactive) | > 10 µM (inactive) | > 10 µM (inactive) | > 10 µM (inactive) | > 10 µM (inactive) | > 10 µM (inactive) | > 10 µM (inactive) | > 10 µM (inactive) | > 10 µM (inactive) | > 10 µM (inactive) |  | > 10 µM (inactive)
C/C1=C\CC[C@@]2(C)O[C@@H]2C[C@@H](C2(C)CO2)CC/C(C)=C/CC1 (some centres not stated) | 22.3 µM (inactive) | 21.2 µM (inactive) | 19.6 µM (inactive) | 22.1 µM (inactive) | 15.4 µM (inactive) | 32.8 µM (inactive) | 34.4 µM (inactive) | 30.3 µM (inactive) | 19.1 µM (inactive) | 22.8 µM (inactive) | 20.6 µM (inactive) | 14.4 µM (inactive) | 20.4 µM (inactive) | 27.1 µM (inactive) | 25.2 µM (inactive) | 19.5 µM (inactive) | 32.9 µM (inactive) | 23.7 µM (inactive) | 
CN(C)/C=N/c1ccc2c3c(cccc13)-c1ccccc1-2 | 11.1 µM (inactive) | 17 µM (inactive) |  | 14.4 µM (inactive) | 13.4 µM (inactive) |  | 10.2 µM (inactive) | 16 µM (inactive) |  | 10.2 µM (inactive) | 15.1 µM (inactive) | 14.5 µM (inactive) | 14.9 µM (inactive) | 5.58 µM (inactive) | 5.22 µM (inactive) | 10.3 µM (inactive) | 15.5 µM (inactive) | 3.66 µM (inactive) | 7.83 µM (inactive)
COC(=O)[C@@]1(C)CCC[C@]2(C(=O)O)C3Cc4occc4[C@H](C)[C@@H]3CCC21 (some centres not stated) | > 100 µM (inactive) | 91.6 µM (inactive) |  | 33.6 µM (inactive) | 31.1 µM (inactive) | 36 µM (inactive) | 29.2 µM (inactive) | 34 µM (inactive) | 33.8 µM (inactive) | 76.4 µM (inactive) | 80.5 µM (inactive) |  | 25.6 µM (inactive) | 41.1 µM (inactive) | 42.7 µM (inactive) | 29.4 µM (inactive) | 44.6 µM (inactive) |  | 51.1 µM (inactive)
CCOC(=O)c1ccc(-n2cnc(-c3ccc([N+](=O)[O-])cc3)c2)cc1 | > 100 µM (inactive) | 36.5 µM (inactive) | > 100 µM (inactive) | > 100 µM (inactive) | 25.2 µM (inactive) | 75.7 µM (inactive) | > 100 µM (inactive) | 94.2 µM (inactive) | > 100 µM (inactive) | > 100 µM (inactive) | > 100 µM (inactive) | > 100 µM (inactive) | > 100 µM (inactive) | > 100 µM (inactive) | > 100 µM (inactive) | > 100 µM (inactive) | > 100 µM (inactive) | 13.1 µM (inactive) | 
N=C(N)c1ccc(-c2ccc(-c3ccc(C(=N)N)cc3)o2)cc1 [FURAMIDINE HYDROCHLORIDE] | 18.9 µM (inactive) | 37.5 µM (inactive) | 54.3 µM (inactive) | 41.4 µM (inactive) | 16.6 µM (inactive) | 28.5 µM (inactive) | 22.8 µM (inactive) | 29 µM (inactive) | 17.6 µM (inactive) | 25.1 µM (inactive) | 30.7 µM (inactive) |  | 31.3 µM (inactive) | 77.8 µM (inactive) | 15.8 µM (inactive) | 21.4 µM (inactive) | 46.3 µM (inactive) | 24.8 µM (inactive) | 32 µM (inactive)
[N-]=[N+]=NC1(N=[N+]=[N-])C(=O)NN=C(c2ccccc2)C1=O (configuration not stated) |  | > 100 µM (inactive) |  | 61.4 µM (inactive) | > 100 µM (inactive) | 50.9 µM (inactive) | 38.9 µM (inactive) | > 100 µM (inactive) | > 100 µM (inactive) | > 100 µM (inactive) | 18.4 µM (inactive) | 37.7 µM (inactive) | > 100 µM (inactive) | 35.3 µM (inactive) | > 100 µM (inactive) | > 100 µM (inactive) | > 100 µM (inactive) | > 100 µM (inactive) | 45.5 µM (inactive)
C/C(=N\N=C(/S)SCc1ccccc1)c1ccccn1 |  | 1.13 µM (inactive) | < 0.0504 µM (active) | 0.514 µM (active) | < 0.0192 µM (active) | < 0.01 µM (active) | < 0.01 µM (active) | < 0.01 µM (active) | 0.26 µM (active) | < 0.0267 µM (active) | 1.02 µM (active) |  | < 0.01 µM (active) | < 0.01 µM (active) | 0.0183 µM (active) | 2.62 µM (inactive) | < 0.01 µM (active) | 0.311 µM (active) | 1.28 µM (inactive)
CCSCCCC(=O)O | > 100 µM (inactive) | > 100 µM (inactive) | > 100 µM (inactive) | > 100 µM (inactive) | > 100 µM (inactive) | > 100 µM (inactive) | > 100 µM (inactive) | > 100 µM (inactive) |  | > 100 µM (inactive) | > 100 µM (inactive) | > 100 µM (inactive) | > 100 µM (inactive) | > 100 µM (inactive) | > 100 µM (inactive) | > 100 µM (inactive) | > 100 µM (inactive) | > 100 µM (inactive) | > 100 µM (inactive)
CN1CCN(CCCN)CC1 | > 100 µM (inactive) | > 100 µM (inactive) | > 100 µM (inactive) | > 100 µM (inactive) | > 100 µM (inactive) | > 100 µM (inactive) | > 100 µM (inactive) | > 100 µM (inactive) |  | > 100 µM (inactive) | > 100 µM (inactive) | > 100 µM (inactive) | > 100 µM (inactive) | > 100 µM (inactive) | > 100 µM (inactive) | > 100 µM (inactive) | > 100 µM (inactive) | > 100 µM (inactive) | > 100 µM (inactive)
